Assay results reported in PubChem BioAssay AID2060483 (Molecular Pharmacology Branch, DTP, NCI, 2025).

Test system: K24384-001-R-PDC complex spheroids, viability
Assay: Anticancer human tumor K24384-001-R-PDC patient-derived pancreatic adenocarcinoma cell line growth inhibition [GQUAD]
Conditions: for IC50: curve of first compound; for viability, T/C: stronger effect = lower value
How it was run: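 Tumor cells were grown as complex spheroids with HUVEC endothelial cells and mesenchymal stem cells as stroma. G-quadruplex stabilizers were combined with targeted agents over half-log dilutions from near the clinical Cmax, or from 10 microM.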

[1] = second compound 0.0316 µM, first compound 0.0316 µM
[2] = second compound 0.0316 µM, first compound 0.1 µM
[3] = second compound 0.0316 µM, first compound 0.316 µM
[4] = second compound 0.0316 µM, first compound 1 µM
[5] = second compound 0.0316 µM, first compound 3.16 µM
[6] = second compound 0.0316 µM, first compound 10 µM
[7] = second compound 0.1 µM, first compound 0.0316 µM
[8] = second compound 0.1 µM, first compound 0.1 µM
[9] = second compound 0.1 µM, first compound 0.316 µM
[10] = second compound 0.1 µM, first compound 1 µM
[11] = second compound 0.1 µM, first compound 3.16 µM
[12] = second compound 0.1 µM, first compound 10 µM
[13] = second compound 0.316 µM, first compound 0.0316 µM
[14] = second compound 0.316 µM, first compound 0.1 µM
[15] = second compound 0.316 µM, first compound 0.316 µM
[16] = second compound 0.316 µM, first compound 1 µM
[17] = second compound 0.316 µM, first compound 3.16 µM
[18] = second compound 0.316 µM, first compound 10 µM
[19] = second compound 1 µM, first compound 0.0316 µM
[20] = second compound 1 µM, first compound 0.1 µM
[21] = second compound 1 µM, first compound 0.316 µM
[22] = second compound 1 µM, first compound 1 µM
[23] = second compound 1 µM, first compound 3.16 µM
[24] = second compound 1 µM, first compound 10 µM
[25] = second compound 3.16 µM, first compound 0.0316 µM
[26] = second compound 3.16 µM, first compound 0.1 µM
[27] = second compound 3.16 µM, first compound 0.316 µM
[28] = second compound 3.16 µM, first compound 1 µM
[29] = second compound 3.16 µM, first compound 3.16 µM
[30] = second compound 3.16 µM, first compound 10 µM
[31] = second compound 10 µM, first compound 0.0316 µM
[32] = second compound 10 µM, first compound 0.1 µM
[33] = second compound 10 µM, first compound 0.316 µM
[34] = second compound 10 µM, first compound 1 µM
[35] = second compound 10 µM, first compound 3.16 µM
[36] = second compound 10 µM, first compound 10 µM
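Also: spheroids exposed to compounds for seven days.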

## CC1COCCN1c1cc(C2(O)CC3CCC(C2)O3)c2cnn(-c3ccn[nH]3)c2n1 (stereo unspecified) + Cc1cnc(CNC(=O)c2c(=O)c3ccc(N4CCCN(C)CC4)nc3n3c2sc2ccccc23)cn1
Second compound 0.0316 µM
  IC50: 33.3 nM
Second compound 0.1 µM
  IC50: < 31.6 nM
Second compound 0.316 µM
  IC50: < 31.6 nM
Second compound 1 µM
  IC50: < 31.6 nM
Second compound 3.16 µM
  IC50: < 31.6 nM
Second compound 10 µM
  IC50: < 31.6 nM
[1]
  viability, T/C: 51.9%
[2]
  viability, T/C: 39.6%
[3]
  viability, T/C: 33.7%
[4]
  viability, T/C: 25.1%
[5]
  viability, T/C: 26.4%
[6]
  viability, T/C: 12.3%
[7]
  viability, T/C: 43.4%
[8]
  viability, T/C: 37.5%
[9]
  viability, T/C: 31.1%
[10]
  viability, T/C: 32.4%
[11]
  viability, T/C: 26.3%
[12]
  viability, T/C: 10.8%
[13]
  viability, T/C: 40.6%
[14]
  viability, T/C: 37.8%
[15]
  viability, T/C: 31%
[16]
  viability, T/C: 31.9%
[17]
  viability, T/C: 23.6%
[18]
  viability, T/C: 10.8%
[19]
  viability, T/C: 39.2%
[20]
  viability, T/C: 42.2%
[21]
  viability, T/C: 31.2%
[22]
  viability, T/C: 26.7%
[23]
  viability, T/C: 18.1%
[24]
  viability, T/C: 8.33%
[25]
  viability, T/C: 42.2%
[26]
  viability, T/C: 35.7%
[27]
  viability, T/C: 29.5%
[28]
  viability, T/C: 27.2%
[29]
  viability, T/C: 16.4%
[30]
  viability, T/C: 8.63%
[31]
  viability, T/C: 27.5%
[32]
  viability, T/C: 20.4%
[33]
  viability, T/C: 23.7%
[34]
  viability, T/C: 19.4%
[35]
  viability, T/C: 6.65%
[36]
  viability, T/C: 0.55%

## CC1COCCN1c1cc(C2(S(C)(=N)=O)CC2)nc(-c2ccnc3[nH]ccc23)n1 (stereo unspecified) + Cc1cnc(CNC(=O)c2c(=O)c3ccc(N4CCCN(C)CC4)nc3n3c2sc2ccccc23)cn1
Second compound 0.0316 µM
  IC50: 2490 nM
Second compound 0.1 µM
  IC50: 2190 nM
Second compound 0.316 µM
  IC50: 5270 nM
Second compound 1 µM
  IC50: < 31.6 nM
Second compound 3.16 µM
  IC50: < 31.6 nM
Second compound 10 µM
  IC50: < 31.6 nM
[1]
  viability, T/C: 85.6%
[2]
  viability, T/C: 100%
[3]
  viability, T/C: 83.5%
[4]
  viability, T/C: 55.7%
[5]
  viability, T/C: 55%
[6]
  viability, T/C: 30.4%
[7]
  viability, T/C: 69%
[8]
  viability, T/C: 90.7%
[9]
  viability, T/C: 64.5%
[10]
  viability, T/C: 56.8%
[11]
  viability, T/C: 50.5%
[12]
  viability, T/C: 39.6%
[13]
  viability, T/C: 57.8%
[14]
  viability, T/C: 64.2%
[15]
  viability, T/C: 56.1%
[16]
  viability, T/C: 52.3%
[17]
  viability, T/C: 59.8%
[18]
  viability, T/C: 40.1%
[19]
  viability, T/C: 41.5%
[20]
  viability, T/C: 45.2%
[21]
  viability, T/C: 45.3%
[22]
  viability, T/C: 42.7%
[23]
  viability, T/C: 43.7%
[24]
  viability, T/C: 32.5%
[25]
  viability, T/C: 41.9%
[26]
  viability, T/C: 50.4%
[27]
  viability, T/C: 37.8%
[28]
  viability, T/C: 43.1%
[29]
  viability, T/C: 37.6%
[30]
  viability, T/C: 25.8%
[31]
  viability, T/C: 34.5%
[32]
  viability, T/C: 23.2%
[33]
  viability, T/C: 31.9%
[34]
  viability, T/C: 35.2%
[35]
  viability, T/C: 35.5%
[36]
  viability, T/C: 21.6%

## O=C(c1cc(Cc2n[nH]c(=O)c3ccccc23)ccc1F)N1CCN(C(=O)C2CC2)CC1 + Cc1cnc(CNC(=O)c2c(=O)c3ccc(N4CCCN(C)CC4)nc3n3c2sc2ccccc23)cn1
Second compound 0.0316 µM
  IC50: > 10000 nM
Second compound 0.1 µM
  IC50: > 10000 nM
Second compound 0.316 µM
  IC50: > 10000 nM
Second compound 1 µM
  IC50: 31.6 nM
Second compound 3.16 µM
  IC50: < 31.6 nM
Second compound 10 µM
  IC50: < 31.6 nM
[1]
  viability, T/C: 88.4%
[2]
  viability, T/C: 93.5%
[3]
  viability, T/C: 92.8%
[4]
  viability, T/C: 113%
[5]
  viability, T/C: 94.8%
[6]
  viability, T/C: 86.3%
[7]
  viability, T/C: 71.8%
[8]
  viability, T/C: 88.7%
[9]
  viability, T/C: 66.9%
[10]
  viability, T/C: 83.6%
[11]
  viability, T/C: 70.9%
[12]
  viability, T/C: 80.7%
[13]
  viability, T/C: 62.5%
[14]
  viability, T/C: 81.5%
[15]
  viability, T/C: 60%
[16]
  viability, T/C: 88.3%
[17]
  viability, T/C: 88.7%
[18]
  viability, T/C: 62.5%
[19]
  viability, T/C: 53%
[20]
  viability, T/C: 48.4%
[21]
  viability, T/C: 49.1%
[22]
  viability, T/C: 67.4%
[23]
  viability, T/C: 60.2%
[24]
  viability, T/C: 49.7%
[25]
  viability, T/C: 43.5%
[26]
  viability, T/C: 52.8%
[27]
  viability, T/C: 47.6%
[28]
  viability, T/C: 59.5%
[29]
  viability, T/C: 38.3%
[30]
  viability, T/C: 50.9%
[31]
  viability, T/C: 40.5%
[32]
  viability, T/C: 24.1%
[33]
  viability, T/C: 43.3%
[34]
  viability, T/C: 45.6%
[35]
  viability, T/C: 27.9%
[36]
  viability, T/C: 12.3%
